Legend:
[1] = patients with Parkinson's Disease, dementia, and spasticity; cited from earlier work
[2] = 25 mg/kg i.p.; microdialysis; cited from earlier work
[3] = tested on: RG2 glioma cells; assay: Proliferation of RG2 glioma cells in culture; format: cell-based, rat
[4] = tested on: C6 cells; assay: Proliferation of C6 glioma cells in culture; format: cell-based, rat
Procedure: (§1) Ten-day-old cortical neurons were loaded with the calcium indicator, fluo-3 AM (5 μM, 1 h), and the fluorescence signal was detected by confocal microscopy (MRC1000, BioRad, Richmond, Calif.) as described (Lin et al., “Ga-Junction-Mediated Propagation and Amplification of Cell Injury,” Nature Neurosci., 1:494–500 (1998); Zhang et al., “Tamoxifen-Induced Enhancement of Calcium Signaling in Glioma and MCF-7 Breast Cancer Cells,” Cancer Res., 60:5395–5400 (2000), which are hereby incorporated in their entirety). 100 μl conditioned medium from the C6 clones was added to the culture (initial media volume was 300 μl). Proliferation of the C6 subclones was determined by cell counting or by the Alamar blue assay (Biosource, Camarillo, Calif.) and cellular invasiveness evaluated using Matrigel-coated transwell inserts as described (Zhang et al., “Direct Gap Junction Communication Between Malignant Glioma Cells and Astrocytes,” Cancer Res., 59:1994–2003 (1999), which is hereby incorporated in its entirety).

[5] = tested on: RG2Glu^+ cell implants; assay: RG2Glu+ glioma implantation in Fischer rats, tumor volume; format: in vivo, rat; details: 25 mg/kg twice daily i.p., 10 d
Procedure: Rats (male Wistar, 250–270 g) anesthetized with pentobarbital (50 mg/kg) were placed in a stereotactic frame and 1×10^4 C6 cells were injected at a depth of 6 mm in the right striata with a Hamilton syringe. Injection coordinates with regard to bregma were 0.5 mm posterior and 3.0 mm lateral. Fischer rats (170–200 g) were injected with 1×10^4 RG2 cells. In some experiments, the glioma cells were prelabeled with the cell tracker, CMFDA (2 μM, Molecular Probes, Eugene, Oreg.) (Lin et al., “Ga-Junction-Mediated Propagation and Amplification of Cell Injury,” Nature Neurosci., 1:494–500 (1998), which is hereby incorporated in its entirety). Ten days after implantation, the anesthetized rats were perfused with 4% paraformaldehyde in phosphate buffer. After post-fixation for 24 hours, the brains were sectioned into 50–500-μm slices by a vibratome (Kang et al., “AstrocyteMediated Potentiation of Inhibitory Synaptic Transmission,” Nature Neurosci., 1:682–692 (1998), which is hereby incorporated in its entirety). The slices were imaged using a Sony digital camera (DSC-S50) and tumor volume calculated using NIH Image software. […]

[6] = tested on: C6Glu^+ cell implants; assay: C6Glu+ glioma implantation in striata of Wistar rats, tumor size 10 days after implantation; format: in vivo, rat
Procedure: Rats (male Wistar, 250–270 g) anesthetized with pentobarbital (50 mg/kg) were placed in a stereotactic frame and 1×10^4 C6 cells were injected at a depth of 6 mm in the right striata with a Hamilton syringe. Injection coordinates with regard to bregma were 0.5 mm posterior and 3.0 mm lateral. Fischer rats (170–200 g) were injected with 1×10^4 RG2 cells. In some experiments, the glioma cells were prelabeled with the cell tracker, CMFDA (2 μM, Molecular Probes, Eugene, Oreg.) (Lin et al., “Ga-Junction-Mediated Propagation and Amplification of Cell Injury,” Nature Neurosci., 1:494–500 (1998), which is hereby incorporated in its entirety). Ten days after implantation, the anesthetized rats were perfused with 4% paraformaldehyde in phosphate buffer. After post-fixation for 24 hours, the brains were sectioned into 50–500-μm slices by a vibratome (Kang et al., “AstrocyteMediated Potentiation of Inhibitory Synaptic Transmission,” Nature Neurosci., 1:682–692 (1998), which is hereby incorporated in its entirety). The slices were imaged using a Sony digital camera (DSC-S50) and tumor volume calculated using NIH Image software.
Based upon the above observations, it was investigated whether excitotoxic neuronal death accelerates tumor expansion. […]

[7] = tested on: C6 cells; assay: Glutamate release from C6 subclones (bioluminescence assay); format: cell-based, rat
Procedure: Confluent cultures were washed twice and incubated in fresh culture medium. Samples of the supernatant were collected at 1, 3 and 6 hours. […] Glutamate release from freshly prepared brain slices was imaged by preparing 300-μm slices by vibratome 5 days after tumor implantation. The sections were prepared in artificial CSF as described (Kang et al., “Astrocyte-Mediated Potentiation of Inhibitory Synaptic Transmission,”Nature Neurosci., 1:683–692 (1998), which is hereby incorporated in its entirety). After 15 to 30 min. incubation in CSF, the slices were transferred to microscope stage and immersed in the bioluminescence mixture (1 ml) at room temperature. To modify the bioluminescence mixture to be tolerated by live tissue, glycerol was removed using Hank's buffered salt solution as the base. The luminescence was imaged by an intensified CCD camera (Hamamatsu, C2400) attached to a BX-50 microscope with a 50 mm camera lens (Olympus). The relative light production over the tumor versus normal brain tissue was quantified. Light emission higher than a background threshold was superimposed upon a bright-field image of the same section obtained immediately after luminescence recordings. The brain slices were fixed overnight in 4% paraformaldehyde and stained with cresylviolet.

[8] = tested on: C6 glioma cells; assay: [3H]glutamate uptake in C6 subclones; format: cell-based, rat; details: 5 min
Procedure: Glutamate uptake was analyzed by mixing 0.4 μCi/ml L-[^3H]glutamate (specific activity 0.03 Ci/mmol) with 150 μM glutamate in a buffer containing […] NaCl, 1.5 mM K2HPO4, 2 MM MgCl2, 2 mM CaCl2, 10 mM HEPES and 10 mM glucose with pH 7.3 (ref 6). NaCl was replaced by choline chloride for sodium-free conditions. Cells were washed twice, then incubated in the uptake solution with various blockers for 5 min., followed by 3 washes with ice-cold buffer, and then dissolved in 0.3 N NaOH. The activity of [^3H]glutamate was detected with liquid scintillation counter (1209 Rackbeta, LKB Wallac, San Francisco, Calif.). Protein concentration was determined by using the DC protein assay kit from BioRad.

[9] = tested on: cultured cortical neurons; assay: Calcium measurement (fluo-3) in cortical neurons after conditioned medium from C6Glu+ cells; format: cell-based, rat; details: 10 μM
Procedure: as §1
After transfer of conditioned medium from C6Glu^+ cells to cultured cortical neurons that had been first loaded with the calcium indicator fluo-3, there was a rapid increase in the relative emission of fluo-3, indicating increased cytosolic calcium levels (FIG. 1B). […]

[10] = tested on: TUNEL^+ neurons surrounding C6Glu^+ cell tumors; assay: TUNEL staining of degenerating neurons surrounding C6Glu+ tumors; format: in vivo, rat; details: five-day-old tumors; P<0.001 one-way ANOVA
Excerpt: Polyclonal antibodies against glutamate transporters were supplied by and used as described by Rothstein et al., “Localization of Neuronal and Glial Glutamate Transporters,” Neuron, 13:713–725 (1994), which is hereby incorporated in its entirety. Neuronal death was visualized with the TUNEL technique (Oncor, Gaithersburg), and counterstained with hematoxilin and eosin (H&E) (Lin et al., “Ga-Junction-Mediated Propagation and Amplification of Cell Injury,” Nature Neurosci., 1, 494–500 (1998), which is hereby incorporated in its entirety). […] TUNEL^+ neurons within a distance of 200 μm from the tumor border were counted by a blinded observer. […]
To test the possibility that elevation of extracellular glutamate triggers excitotoxic neuronal death in normal brain tissue invaded by C6Glu^+ tumor cells, TUNEL (terminal deoxynucleotidyl-transferase-mediated dUTP-blotin nick end-labeling) staining was used to identify degenerating neurons (Lin et al., “Ga-Junction-Mediated Propagation and Amplification of Cell Injury,” Nature Neurosci., 1, 494–500 (1998), which is hereby incorporated in its entirety). Five-day-old tumors were evaluated to minimize indirect injury resulting from the very large tumors in animals with C6Glu^+ cell implants. […]

[11] = tested on: cortical neurons; assay: Coculture of cortical neurons with C6Glu+ glioma aggregates, neuronal viability; format: cell-based, rat; details: pretreatment; 24 h coculture (10 μM per FIG. 1C)
Procedure: Glioma cell aggregates were produced by plating 100,000 C6Glu^+ or C6Glu^−cells in plates with non-adhesive substrate (ultra low cluster 3473; Costar, Cambridge, Mass.). Twenty-four hours later, the glioma aggregates were loaded with calcein AM (green, 2 μM, excitation 488 nm) and transferred to neuronal cultures. Cortical neuronal cultures were preloaded with the cell tracker Sytox 62 (white, 0.1 μM, excitation 647 nm).
To study the direct cellular interactions, the glioma clones were cocultured with cortical neurons (Id.). Twenty-four hours after adding aggregates of C6Glu^− cells to established neuronal cultures, 86±2% of the neurons remained viable (FIGS. 1C–D). In comparison, only 14±1% of neurons survived in sister cultures after addition of C6Glu^+ cell aggregates (FIGS. 1C–D).

Compound: CC12CC3CC(C)(C1)CC(N)(C3)C2 [memantine]
- side effects on prolonged administration [1]: few side effects
- peak concentrations in the central nervous system [2]: 1 to 2 µM
- proliferation of RG2 glioma cells ([3]; 100 μM or higher): significant reduction
- proliferation of RG2 glioma cells ([3]; low concentrations): did not reduce
- proliferation of cultured C6Glu+ cells ([4]; 100 μM or higher): significant reduction
- proliferation of cultured C6Glu+ cells ([4]; low concentrations): did not reduce
- tumor volume smaller than vehicle-treated rats [5]: 26%
- growth of C6Glu+ tumors ([6]; 10 d after implantation, P<0.001 (FIG. 6D)): effectively restricted the growth

Compound: N[C@H](C(=O)O)c1ccc(C(=O)O)cc1 [S-4CPG, (s)-4-carboxyphenylglycine]
- glutamate release from C6 cells ([7]; 100 μM, any of the three clones): no effect

Compound: O=C(O)[C@@H]1CN[C@@H](C(=O)O)C1 (relative stereo) [trans-PDC, trans-pyrrolidine-2,4-dicarboxylate]
- glutamate release from C6 cells ([7]; 6-h period): not affected
- uptake of [3H]glutamate in C6Glu+ cells ([8]; 200 μM): not affected
- [3H]glutamate uptake in C6Glu- cells [8]: significantly reduced
- [3H]glutamate uptake in C6WT cells [8]: significantly reduced

Compound: N[C@@H](CSSC[C@H](N)C(=O)O)C(=O)O [cystine]
- glutamate release from C6 cells ([7]; addition of extracellular cystine, any of the three clones): no effect

Compound: C[C@]12N[C@H](Cc3ccccc31)c1ccccc12 [MK801, dizocilpine]
- increase in fluo-3 emission (cytosolic calcium) in cortical neurons [9]: blocked
- number of TUNEL+ neurons surrounding C6Glu+ cell tumors [10]: reduced
- neuronal loss in coculture with C6Glu+ cell aggregates [11]: attenuated the neuronal loss
- proliferation rate of C6 cells in vitro ([4]; 10 or 100 μM per FIG. 4B): did not reduce
- tumor size ([6]; 1 mg/kg twice daily i.p., 10 days after injection of C6Glu+ cells, vehicle 106±19 mm^3, P<0.001): 54.9±11 mm^3
